Results as given in patent publication US4699921A, “Pharmaceuticals containing prostaglandin I2” (Mitsubishi Yuka Pharmaceutical Co., Ltd., priority 1984, dated 1987).
Read-outs that look alike come from different tables or passages of the source.

Key:
[1] = tested on: Human platelet aggregation (ADP induced); assay: Human platelet aggregation inhibiting effect (in vitro); type: cell-based; conditions: human PRP, ADP 2-10 μM, 37° C., one minute preincubation, read-out: Platelet aggregation inhibiting ratio (IC50)
Protocol: Platelet aggregation inhibiting effect
Bloods were sampled from healthy voluers (22-34 years old) with no administration of drug for 2 weeks or more early in the morning when they were hungry. By use of an injector filled with 5 ml of 3.8% sodium citrate solution, 50 ml of blood was sampled, immediately stirred by turning upside down and centrifuged at 200×g for 15 minutes. The supernatant was separated as the PRP (platelet rich plasma) and the residue further subjected to centrigugation at 2000×g for 15 minutes, followed by recovery of the supernatant as PPP (poor platelet plasma) which was provided for use in the experiment.
PRP (250 μ) was placed in a cuvette, 5 μof an 1% ethanol solution of the compound of the present invention or an 1% ethanol solution was added, and incubation was carried out at 37° C. for one minute. Then, an aggregation inducing agent (ADP) was added and the process of aggregation was recorded by Aggregometer (Sienco Co.). As the concentration of ADP, the minimum concentrations of ADP (2-10 μM) to give the maximum aggregation for respective platelets were employed. The inhibition percentage of platelet aggregation was calculated by the following formula:
Inhibition percentage=(A-B)/A×100
A: Maximum aggregation ratio during addition of solvent (1% ethanol solution)
B: Maximum aggregation ratio during addition of the compound of the present invention.
The platelet aggregation inhibiting effects of the compounds of the present invention are shown in terms of IC50 values in Table 6.

gastric acid secretion = assay: Antiulcer effect (2): rat gastric acid inhibiting effect (pylorus ligature); type: in vivo, male Wistar rat; conditions: subcutaneous, 100 μg/kg, 4 hours after pylorus ligature; for Amount of gastric acid secreted: solvent 73.6
Protocol: Male wistar strain rats (weighing 250-280 g) were fasted for 18 hours subjected to peritoneotomy under ether anesthesia for ligature of pylorus, and after 4 hours under abstinence from food and water, gastric juice was sampled. The gastric juice was centrifuged at 3000 rpm for 10 minutes, and then the amount, pH and acidity of the gastric juice were measured. The acidity was measured by titration by means of an automatic titrating device (Toa Denpa Kogyo) with a 0.1N NaOH to pH 7.0 and calculating according to the following formula: [formula]
The gastric juice secretion inhibition percentage was calculated according to the following formula: [formula] A: Amount of gastric acid excreted in Control group B: Amount of gastric acid excreted in Drug group
The drugs to be tested were adminsistered subcutaneously immediately after pylorus ligature.

right femoral artery = assay: Vasodilative effect (perfusion pressure of femoral artery in anesthetized dogs); type: in vivo, dog; conditions: intraarterial, 100 μg/kg
Protocol: Female and male adult dogs were anesthetized by intraveneous administeration of 30 mg/kg of sodium pentobarbital and fixed on their back positions. The right femoral artery was perfused at constant flow with the dog's own blood by means of a peristaltic pump (Harvard Co.). The perfusion pressure was measured with an electromanometer and systemic blood pressure was measured in the other femoral artery with a pressure transducer. As an anticoagulant, 500 U/kg of heparin sodium was intravenously administered.
The compound of the present invention was dissolved in 10% ethanol-90% physiological salt solution and administered into arterial blood through a thick rubber tube provided in the perfusion circuit. The vasodilative effect of the compound of the present invention is expressed by the change ratio of perfusion pressure after administration into the artery.

blood pressure = assay: Hypotensive effect in anesthetized rats; type: in vivo, male Wistar rat; conditions: intravenous, 10 μg/kg
Protocol: Male wistar strain rats (weighing 240-290 g) were anesthetized by intraperitoneal administration of 50 mg/kg of sodium pentobarbital, and blood pressures were measured. The compound of the present invention was administered intravenously as a solution dissolved in 10 ethanol- 90% physiological salt solution. The hypotensive effect is expressed by the percent change of average blood pressure after intravenous administration (relative to that before administration).

gastric mucosa damage = assay: Antiulcer effect (1): inhibition of hydrochloric acid induced gastric mucosa damage; type: in vivo, male SD rat; conditions: oral, 25 μg/kg, 30 minutes before 1 ml of 0.6N hydrochloric acid
Protocol: Male SD-strain rats (weighing 220-255 g) were fasted for 20 hours (water was given ad libitum) and, after further abstinence from food and water for 4 hours, the compound of the present invention was administered orally, followed further by oral administration of 1 ml of 0.6N hydrochloric acid 30 minutes later. One hour after administration of hydrochloric acid, the stomach was enucleated under chloroform anesthesia. The fluid in the stomach was discharged and 7.5 ml of a 1% formalin solution was injected into the stomach to fix the gastric mucosa. Then, the stomach was dissected along the greater curvature and the length of the gastric mucosa damage was measured under a steroscopic microscope. The compound of the present invention was dissolved in 5% ethanol-95% physiological salt solution and administered at a dose of 25 μg/kg in a volume of 5 ml/kg.
The antiulcer effect of the compound of the present invention was calculated by the following formula: [formula] l: length of gastric mucosa damage in the group to which the compound of the present invention is administered;
lo: length of gastric mucosa damage in the group of non-administration of drug.

IC50 ([1]; Platelet) [nM]	Compound	Gastric acid secretion Inhibition (gastric acid secretion) [%]	Amount of gastric acid secreted (gastric acid secretion) [mEq/l]	also measured
–	CCCC(C)C[C@H](O)/C=C/[C@H]1[C@H]2CC(C=CCCC(=O)O)=C[C@H]2C[C@H]1O (mixture of isomers) [Compound K, 3-(4'-carboxy-1'-butenyl)-6(S)-(3'(S)-hydroxy-5'(RS)-methyl-trans-1'-octenyl)-7(R)-hydroxy-(1S,5S)-cis-bicyclo[3.3.0]oct-2-ene]	70.5	21.7	IC50 [1]: 2 nM
–	CCCCC(C)C[C@H](O)/C=C/[C@H]1[C@H]2CC(C=CCCC(=O)O)=C[C@H]2C[C@H]1O (mixture of isomers) [Compound M, 3-(4'-carboxy-1'-butenyl)-6(S)-(3'(S)-hydroxy-5'(RS)-methyl-trans-1'-nonenyl)-7(R)-hydroxy-(1S,5S)-cis-bicyclo[3.3.0]-oct-2-ene]	73.5	19.5	IC50 [1]: 4 nM
14	CCCCC[C@H](O)/C=C/[C@@H]1[C@H]2CC(C=CCCC(=O)O)=C[C@H]2C[C@H]1O [Compound A]	–	–	–
7	O=C(O)CCC=CC1=C[C@H]2C[C@@H](O)[C@H](/C=C/[C@@H](O)C3CCCC3)[C@H]2C1 [Compound B]	–	–	–
0.8	CC#CCC(C)[C@H](O)/C=C/[C@@H]1[C@H]2CC(C=CCCC(=O)O)=C[C@H]2C[C@H]1O (some centres unmarked) [Compound C]	–	–	–
20	CC(C)=CCC[C@@H](C)C[C@H](O)/C=C/[C@@H]1[C@H]2CC(C=CCCC(=O)O)=C[C@H]2C[C@H]1O [Compound D]	–	–	–
5	O=C(O)CCC=CC1=C[C@H]2C[C@@H](O)[C@H](/C=C/[C@@H](O)C3CCCCC3)[C@H]2C1 [Compound E]	–	–	–
4	CCC#CCC(C)[C@H](O)/C=C/[C@@H]1[C@H]2CC(C=CCCC(=O)O)=C[C@H]2C[C@H]1O (stereo partly drawn) [Compound F, 3-(4'-carboxy-1'-butenyl)-6(S)-(3'(S)-hydroxy-4'(RS)-methyl-trans-1'-nonen-6'-ynyl)-7(R)-hydroxy-(1S,5S)-cis-bicyclo[3.3.0]oct-2-ene]	81.8	13.4	–
0.6	CCC#CC(C)C[C@H](O)/C=C/[C@@H]1[C@H]2CC(C=CCCC(=O)O)=C[C@H]2C[C@H]1O (some centres unmarked) [Compound G]	–	–	–
8	CCCCCC(C)[C@H](O)/C=C/[C@@H]1[C@H]2CC(C=CCCC(=O)O)=C[C@H]2C[C@H]1O (stereo partly drawn) [Compound H, 3-(4'-carboxy-1'-butenyl)-6(S)-(3'(S)-hydroxy-4'(RS)-methyl-trans-1'-nonenyl-7(R)-hydroxy-1S,5S)-cis-bicyclo[3.3.0]oct-2-ene]	89.9	7.4	–
80	O=C(O)CCC=CC1=C[C@H]2C[C@@H](O)[C@H](/C=C/[C@@H](O)CCc3ccccc3)[C@H]2C1 [Compound I, 3-(4'-carboxy-1'-butenyl)-6(S)-(3'(S)-hydroxy-5'-phenyl-trans-1'-pentenyl)-7(R)-hydroxy-(1S,5S)-cis-bicyclo[3.3.0]oct-2-ene]	73.5	19.5	–
200	CCCCC(C)(C)[C@H](O)/C=C/[C@@H]1[C@H]2CC(C=CCCC(=O)O)=C[C@H]2C[C@H]1O [Compound J, 3-(4'-carboxy-1'-butenyl)-6(S)-(3'(S)-hydroxy-4',4'-dimethyl-trans-1'-octenyl)-7(R)-hydroxy-(1S,5S)-cis-bicyclo[3.3.0]oct-2-ene]	18.1	60.3	–
300	CC(C1CCCCC1)[C@H](O)/C=C/[C@@H]1[C@H]2CC(C=CCCC(=O)O)=C[C@H]2C[C@H]1O (some centres unmarked) [Compound L]	36.8	46.5	–
9	O=C(O)CCCC=C1C[C@H]2C[C@@H](O)[C@H](/C=C/[C@@H](O)C3CCCC3)[C@H]2C1 [OP-41483]	–	–	Perfusion pressure change (right femoral artery): -16%; Percent change of average blood pressure (blood pressure): -39%; Inhibition of gastric mucosa damage (gastric mucosa damage): -28.3%
–	CCCCC[C@H](O)/C=C/[C@H]1[C@H](O)CC(=O)[C@@H]1C/C=C\CCCC(=O)O [PGE2]	–	–	Inhibition of gastric mucosa damage (gastric mucosa damage): 61.1%
